In patent publication US20240390369A1, “METHODS FOR DETERMINING RESPONSIVENESS TO TYK2 INHIBITORS” (Bristol-Myers Squibb Company, priority 2021, published 2024):

Test system: patients with psoriatic arthritis
Assay: Phase 2 trial in psoriatic arthritis: PASI75 response at week 16
Format: in vivo, human
Conditions: for Interaction Term for PASI75 response (ratio of odds ratios): week 16
Method: In a double-blind Phase 2 trial, 203 patients with psoriatic arthritis were randomized into three groups: deucravacitinib 6 mg once daily (N=70), deucravacitinib 12 mg once daily (N=67), or placebo (N=66). All subjects had active psoriatic arthritis according to the Classification Criteria for Psoriatic Arthritis (CASPAR); for active disease, these criteria required ≥3 tender joint count, ≥3 swollen joint count, and a C-reactive protein level above 3 mg/L. Other inclusion criteria included the following: presence of at least one plaque psoriasis lesion, and prior treatment failure with a non-biologic disease modifying anti-rheumatic drug, a non-steroidal anti-inflammatory drug, or a steroid. With respect to treatment history, approximately 70% of subjects had not received prior treatment with a biologic and were biologic naïve, while up to 30% of subjects had failed or had been intolerant to one TNF-inhibitor (TNF=Tumor necrosis factor, also known as TNFα). Randomization was stratified by prior TNF-inhibitor use (experienced/naïve) and body weight (<90 kg and ≥90 kg).
Clinical measures included the Psoriasis […] (PASI) score for skin psoriasis, American College of Rheumatology 20 (ACR20) response, Psoriatic Arthritis Disease Activity Score (PASDAS), Health Assessment Questionnaire-Disability Index (HAQ-DI), and Disease Activity Score 28 CRP (DAS28). To evaluate the predictive value of different protein measurements for the clinical response to deucravacitinib, baseline protein concentrations for responders and non-responders, as defined by ACR20 or PASI75 at week 16, were compared for each arm (placebo, 6 mg deucravacitinib once-daily, and 12 mg deucravacitinib once-daily).
In addition, a logistic regression model was fit, to determine whether baseline disease score (dichotomized by the median baseline score, into baseline score high and baseline score low groups) was associated with response status. The model generated an odds ratio for each dosed arm versus placebo, in baseline score high and baseline score low groups.
Boxplots for baseline protein level by response were generated with a horizontal line indicating the median protein level at baseline. For each treatment arm, a two-sample t-test was performed to test whether mean baseline serum protein level was different in responders versus non-responders. A Wilcoxon rank sum test (Mann-Whitney U test) was also performed to evaluate the difference in median serum protein level between responders and non-responders. Further, barplots of ACR20 and PASI75 response rate at week 16 for each treatment arm were generated for all subjects (protein level high and protein level low subjects, dichotomized according to median baseline level). Line plots of ACR20 and PASI75 response rate over time for each treatment arm were generated for protein level high and protein level low groups. Logistic regression models were also fit to evaluate associations between baseline protein levels and clinical outcome.
For certain analyses described herein, patients were dichotomized by median values (e.g., of the proteins listed above or other measures) into “high” and “low” groups, such that the high group had values above the median and the low group had values less than or equal to the median.
In addition, logistic regression models were fit for response measures ACR20 and PASI75, to generate the odds ratio of each of the deucravacitinib treatment arms versus placebo, in BD2-high and BD2-low groups. The following logistic regression models were used: • For ACR20 response status: ACR20 (Y/N)=treatment arm+BD2 group+treatment arm*BD2 group+TNF-inhibitor use+baseline weight (continuous). • For PASI75 response status: PASI75 (Y/N)=treatment arm+BD2 group+treatment arm*BD2 group+TNF-inhibitor use+baseline weight (continuous). […]

[1] = 12 mg QD, Above median baseline CRP level
[2] = 12 mg QD, Below median baseline CRP level

## [2H]C([2H])([2H])NC(=O)c1nnc(NC(=O)C2CC2)cc1Nc1cccc(-c2ncn(C)n2)c1OC [deucravacitinib, 6-(cyclopropanecarboxamido)-4-((2-methoxy-3-(1-methyl-1H-1,2,4-triazol-3-yl)phenyl)amino)-N-(methyl-d3)pyridazine-3-carboxamide]
6 mg QD, PASI75 responder, BD2-high-PASI-low
  Number of subjects: 4
6 mg QD, PASI75 responder, BD2-low-PASI-high
  Number of subjects: 2
6 mg QD, PASI75 responder, BD2-low-PASI-low
  Number of subjects: 5
6 mg QD, PASI75 responder, IL-17A-high-PASI-high
  Number of subjects: 12
6 mg QD, PASI75 responder, IL-17A-high-PASI-low
  Number of subjects: 7
6 mg QD, PASI75 responder, IL-17A-low-PASI-high
  Number of subjects: 4
6 mg QD, PASI75 responder, IL-17A-low-PASI-low
  Number of subjects: 2
6 mg QD, PASI75 responder, IL-19-high-PASI-high
  Number of subjects: 13
6 mg QD, PASI75 responder, IL-19-high-PASI-low
  Number of subjects: 6
6 mg QD, PASI75 responder, IL-19-low-PASI-high
  Number of subjects: 3
6 mg QD, PASI75 responder, IL-19-low-PASI-low
  Number of subjects: 3
12 mg QD vs placebo: BD2 high versus BD2 low
  Interaction Term for PASI75 response (ratio of odds ratios): 14.233
12 mg QD vs placebo: CRP high versus CRP low
  Interaction Term: treatment arm*CRP group, PASI75: 2.63
12 mg QD vs placebo: CRP-high versus CRP-low, adjusted for baseline PASI score
  Interaction Term: treatment arm*CRP group, PASI75: 3.18
12 mg QD vs placebo: IL-17A high versus IL-17A low, adjusted for baseline PASI score
  Interaction Term: treatment arm*IL-17A group, PASI75: 13.222
12 mg QD vs placebo: IL-17A high versus IL-17A low
  Interaction Term for PASI75 response (ratio of odds ratios): 12.089
12 mg QD vs placebo: baseline PASI high versus PASI low
  Interaction Term for PASI75 response (ratio of odds ratios): 6.42
[1]
  Number of subjects, PASI75 Non-responder at week 16: 7
  Number of subjects, PASI75 Responder at week 16: 18
[2]
  Number of subjects, PASI75 Non-responder at week 16: 14
  Number of subjects, PASI75 Responder at week 16: 13
12 mg QD, CRP-high-PASI-high
  Number of subjects, PASI75 Non-responder: 4
  Number of subjects, PASI75 Responder: 10
12 mg QD, CRP-high-PASI-low
  Number of subjects, PASI75 Non-responder: 3
  Number of subjects, PASI75 Responder: 8
12 mg QD, CRP-low-PASI-high
  Number of subjects, PASI75 Non-responder: 2
  Number of subjects, PASI75 Responder: 10
12 mg QD, CRP-low-PASI-low
  Number of subjects, PASI75 Non-responder: 12
  Number of subjects, PASI75 Responder: 3
12 mg QD, PASI75 non-responder at week 16, above baseline PASI median 6.6
  Number of subjects: 6
12 mg QD, PASI75 non-responder at week 16, above median baseline BD2 level
  Number of subjects: 11
12 mg QD, PASI75 non-responder at week 16, above median baseline IL-17A level
  Number of subjects: 8
12 mg QD, PASI75 non-responder at week 16, above median baseline IL-19 level
  Number of subjects: 6
12 mg QD, PASI75 non-responder at week 16, below baseline PASI median 6.6
  Number of subjects: 15
12 mg QD, PASI75 non-responder at week 16, below median baseline BD2 level
  Number of subjects: 13
12 mg QD, PASI75 non-responder at week 16, below median baseline IL-17A level
  Number of subjects: 13
12 mg QD, PASI75 non-responder at week 16, below median baseline IL-19 level
  Number of subjects: 14
12 mg QD, PASI75 non-responder, BD2-high-PASI-high
  Number of subjects: 5
12 mg QD, PASI75 non-responder, BD2-high-PASI-low
  Number of subjects: 5
12 mg QD, PASI75 non-responder, BD2-low-PASI-high
  Number of subjects: 1
12 mg QD, PASI75 non-responder, BD2-low-PASI-low
  Number of subjects: 10
12 mg QD, PASI75 non-responder, IL-17A-high-PASI-high
  Number of subjects: 5
12 mg QD, PASI75 non-responder, IL-17A-high-PASI-low
  Number of subjects: 3
12 mg QD, PASI75 non-responder, IL-17A-low-PASI-high
  Number of subjects: 1
12 mg QD, PASI75 non-responder, IL-17A-low-PASI-low
  Number of subjects: 12
12 mg QD, PASI75 non-responder, IL-19-high-PASI-high
  Number of subjects: 3
12 mg QD, PASI75 non-responder, IL-19-high-PASI-low
  Number of subjects: 3
12 mg QD, PASI75 non-responder, IL-19-low-PASI-high
  Number of subjects: 2
12 mg QD, PASI75 non-responder, IL-19-low-PASI-low
  Number of subjects: 12
12 mg QD, PASI75 responder at week 16, above baseline PASI median 6.6
  Number of subjects: 20
12 mg QD, PASI75 responder at week 16, above median baseline BD2 level
  Number of subjects: 23
12 mg QD, PASI75 responder at week 16, above median baseline IL-17A level
  Number of subjects: 18
